Consider 23 compounds from patent publication US8354436B2 (4SC Discovery GmbH, priority 2011, dated 2013).

pIC50: −log10 of the molar value. Like-named read-outs stand apart in the source and are kept apart here.

What all share (format): cell-based
Common to all, as to conditions: 48 hours

For one test, the system named is IL-17FF. Put plainly: IL-17FF production by PHA-stimulated human PBMC (human IL-17F ELI-Pair). The essentials:
(§1)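 Healthy-donor PBMC (1×10^5 cells/well) activated with 2 μg/ml PHA and incubated with compounds for 48 h. Supernatant IL-17AA/AF read by Luminex BioPlex, IL-17AA, IL-17FF and IFN-γ by ELISA. Screening at 10, 1, 0.1 and 0.01 μM; IC50 from semilogarithmic titrations.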

Test [1] relates to PBMC from healthy human donors. Put plainly: T cell proliferation assay (PHA-stimulated human PBMC, BrdU ELISA). The method in brief: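 Healthy-donor PBMC isolated on Ficoll, seeded at 1×10⁵ cells/well in RPMI with 10% dialysed FCS, stimulated with 2 μg/ml PHA in presence of test compound. Proliferation read after 48 hours by BrdU-incorporation ELISA.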
(In general: Uptake of a labelled nucleoside into DNA is a usual measure of proliferation.)

The test system of the next test is IFN-γ. Put plainly: IFN-γ production by PHA-stimulated human PBMC (OptEIA human IFN-g ELISA). The method in brief:
as §1
Background: In an ELISA, binding on a coated surface is turned into a signal by an enzyme label.

The mark [2] stands for this setting: PHA-stimulated human PBMC, column B, read-out: IC50 (IL-17FF).
[3] abbreviates: PHA-stimulated human PBMC, column D, read-out: IC50 (Tcell proliferation).
Setting [4] is: PHA-stimulated human PBMC, column C, read-out: IC50 (IFNγ).
The mark [5] stands for this setting: human PBMC, 2 μg/ml PHA, read-out: B: IC50 (IL-17FF).
[6] abbreviates: human PBMC, 2 μg/ml PHA, read-out: D: IC50 (Tcell proliferation).
The mark [7] stands for this setting: human PBMC, 2 μg/ml PHA, read-out: C: IC50 (IFNγ).

On to `COC(=O)c1c(-c2c(F)cccc2Cl)noc1-c1cnn(-c2ccccc2Cl)c1C(F)(F)F` [IB-20, methyl 3-(2-chloro-6-fluorophenyl)-5-(1-(2-chlorophenyl)-5-(trifluoromethyl)-1H-pyrazol-4-yl)isoxazole-4-carboxylate], for which the pIC50 (with IL-17FF (setting [2]); in test [1] (setting [3]); with IFN-γ (setting [4])) was 5.00 to 6.00 each time.
Turning to `COC(=O)c1c(-c2c(F)cccc2Cl)noc1-c1cnn(-c2cc(C)nc(C)n2)c1C(F)(F)F` [Example I-119, methyl 3-(2-chloro-6-fluorophenyl)-5-(1-(2,6-dimethylpyrimidin-4-yl)-5-(trifluoromethyl)-1H-pyrazol-4-yl)isoxazole-4-carboxylate], the pIC50 (in the test with IL-17FF (setting [2]); in test [1] (setting [3]); in the test with IFN-γ (setting [4])) was 6.00 to 7.00 throughout.
In the case of `Fc1cccc(-n2ncc(-c3onc(-c4c(F)cccc4Cl)c3-c3nnc(C(F)(F)F)o3)c2C(F)(F)F)c1` [Example 6, 2-(3-(2-chloro-6-fluorophenyl)-5-(1-(3-fluorophenyl)-5-(trifluoromethyl)-1H-pyrazol-4-yl)isoxazol-4-yl)-5-(trifluoromethyl)-1,3,4-oxadiazole], the pIC50 (in the test on IL-17FF (setting [5]); in test [1] (setting [6]); in the test with IFN-γ (setting [7])) was 7.00 to 8.00 in each case.
Consider `CCOC(=O)c1c(-c2c(Cl)cncc2Cl)noc1-c1cnn(-c2ccncc2)c1C(F)(F)F` [IB-10, ethyl 3-(3,5-dichloropyridin-4-yl)-5-(1-(pyridin-4-yl)-5-(trifluoromethyl)-1H-pyrazol-4-yl)isoxazole-4-carboxylate], for which the pIC50 (in the test with IL-17FF (setting [2]); in test [1] (setting [3]); with IFN-γ (setting [4])) was 6.00 to 7.00 throughout.
Take `COC(=O)Nc1c(-c2c(F)cccc2Cl)noc1-c1cnn(-c2cccc(F)c2)c1C(F)(F)F` [Example I-138, methyl 3-(2-chloro-6-fluorophenyl)-5-[1-(3-fluorophenyl)-5-(trifluoromethyl)-1H-pyrazol-4-yl]isoxazol-4-ylcarbamate]: the pIC50 (in the test with IL-17FF (setting [2]); in test [1] (setting [3]); in the test with IFN-γ (setting [4])) was 6.00 to 7.00 each time.
Turning to `CCOC(=O)c1c(-c2c(F)cccc2Cl)noc1-c1cnn(-c2ccccn2)c1C(F)(F)F` [IB-84, ethyl 3-(2-chloro-6-fluorophenyl)-5-(1-(pyridin-2-yl)-5-(trifluoromethyl)-1H-pyrazol-4-yl)isoxazole-4-carboxylate], the pIC50 (in the test with IL-17FF (setting [2]); in test [1] (setting [3]); in the test with IFN-γ (setting [4])) was > 8.00 throughout.
As for `Cc1nnc(-c2c(-c3c(F)cccc3Cl)noc2-c2cnn(-c3ccncc3)c2C(F)(F)F)o1` [Example B-19, 2-(3-(2-chloro-6-fluorophenyl)-5-(1-(pyridin-4-yl)-5-(trifluoromethyl)-1H-pyrazol-4-yl)isoxazol-4-yl)-5-methyl-1,3,4-oxadiazole], the pIC50 (in the test with IL-17FF (setting [5]); in test [1] (setting [6]); with IFN-γ (setting [7])) was 6.00 to 7.00 each time.
As for `CCOC(=O)c1c(-c2onc(-c3c(F)cccc3Cl)c2C(=O)OC)cnn1-c1ccc(F)cc1` [Example I-26, methyl 3-(2-chloro-6-fluorophenyl)-5-(5-(ethoxycarbonyl)-1-(4-fluorophenyl)-1H-pyrazol-4-yl)isoxazole-4-carboxylate], the pIC50 (with IL-17FF (setting [2]); in test [1] (setting [3]); in the test with IFN-γ (setting [4])) was 5.00 to 6.00 throughout.
With `CCOC(=O)c1c(-c2onc(-c3c(F)cccc3Cl)c2C(=O)OC)cnn1-c1cccc(F)c1` [Example I-8, methyl 3-(2-chloro-6-fluorophenyl)-5-(5-(ethoxycarbonyl)-1-(3-fluorophenyl)-1H-pyrazol-4-yl)isoxazole-4-carboxylate], the pIC50 (in the test with IL-17FF (setting [2]); in test [1] (setting [3]); in the test on IFN-γ (setting [4])) was 6.00 to 7.00 each time.
For the compound `COC(=O)c1c(-c2c(F)cccc2Cl)noc1-c1cnn(-c2ccc(S(C)(=O)=O)cc2)c1C(F)(F)F` [Example I-85, methyl 3-(2-chloro-6-fluorophenyl)-5-(1-(4-(methylsulfonyl)phenyl)-5-(trifluoromethyl)-1H-pyrazol-4-yl)isoxazole-4-carboxylate], the pIC50 (in the test on IL-17FF (setting [2]); in test [1] (setting [3]); with IFN-γ (setting [4])) was 5.00 to 6.00 each time.
Consider `Fc1cccc(Cl)c1-c1noc(-c2cnn(-c3ccccc3Cl)c2C(F)(F)F)c1-c1nccs1` [Example B-29, 3-(2-chloro-6-fluorophenyl)-5-(1-(2-chlorophenyl)-5-(trifluoromethyl)-1H-pyrazol-4-yl)-4-(thiazol-2-yl)isoxazole], for which the pIC50 with IL-17FF (setting [5]) was 5.00 to 6.00; in test [1] (setting [6]), 5.00 to 6.00; with IFN-γ (setting [7]), 6.00 to 7.00.
On to `CC(=O)Nc1c(-c2c(F)cccc2Cl)noc1-c1cnn(-c2cccc(F)c2)c1C(F)(F)F` [Example I-139, N-(3-(2-chloro-6-fluorophenyl)-5-(1-(3-fluorophenyl)-5-(trifluoromethyl)-1H-pyrazol-4-yl)isoxazol-4-yl)acetamide], for which the pIC50 (in the test on IL-17FF (setting [2]); in test [1] (setting [3]); in the test on IFN-γ (setting [4])) was 5.00 to 6.00 each time.
Consider `CCOC(=O)c1c(-c2c(Cl)cncc2Cl)noc1-c1cnn(-c2cccc(Cl)c2)c1C(F)(F)F` [IB-7, ethyl 5-(1-(3-chlorophenyl)-5-(trifluoromethyl)-1H-pyrazol-4-yl)-3-(3,5-dichloropyridin-4-yl)isoxazole-4-carboxylate], for which the pIC50 in the test with IL-17FF (setting [2]) is 5.00 to 6.00; in test [1] (setting [3]), 5.00 to 6.00; with IFN-γ (setting [4]), 6.00 to 7.00.
Turning to `Fc1cccc(Cl)c1-c1noc(-c2cnn(-c3cccc(Cl)c3)c2C(F)(F)F)c1-c1nnn[nH]1` [Example 3, 3-(2-chloro-6-fluorophenyl)-5-(1-(3-chlorophenyl)-5-(trifluoromethyl)-1H-pyrazol-4-yl)-4-(1H-tetrazol-5-yl)isoxazole], the pIC50 (with IL-17FF (setting [5]); in test [1] (setting [6]); with IFN-γ (setting [7])) was 5.00 to 6.00 in each case.
For `Fc1cccc(Cl)c1-c1noc(-c2cnn(-c3cccc(Cl)c3)c2C(F)(F)F)c1-c1ccoc1` [Example B-7, 3-(2-chloro-6-fluorophenyl)-5-(1-(3-chlorophenyl)-5-(trifluoromethyl)-1H-pyrazol-4-yl)-4-(furan-3-yl)isoxazole], the pIC50 (in the test on IL-17FF (setting [5]); in test [1] (setting [6]); with IFN-γ (setting [7])) was > 8.00 in each case.
For the compound `Cc1nnc(-c2c(-c3c(F)cccc3Cl)noc2-c2cnn(-c3ccccn3)c2C(F)(F)F)s1` [Example B-27, 3-(2-chloro-6-fluorophenyl)-4-(5-methyl-1,3,4-thiadiazol-2-yl)-5-(1-(pyridin-2-yl)-5-(trifluoromethyl)-1H-pyrazol-4-yl)isoxazole], the pIC50 (in the test with IL-17FF (setting [5]); in test [1] (setting [6]); with IFN-γ (setting [7])) was 7.00 to 8.00 throughout.
As to `Fc1cccc(-n2ncc(-c3onc(-c4c(F)cccc4Cl)c3-c3ccsc3)c2C(F)(F)F)c1` [Example 16, 3-(2-chloro-6-fluorophenyl)-5-(1-(3-fluorophenyl)-5-(trifluoromethyl)-1H-pyrazol-4-yl)-4-(thiophen-3-yl)isoxazole], the results for the pIC50 (with IL-17FF (setting [5]); in test [1] (setting [6]); with IFN-γ (setting [7])) were 6.00 to 7.00, > 8.00 and > 8.00, respectively.
As to `CCOC(=O)c1c(-c2c(F)cccc2Cl)noc1-c1cnn(CC2CCCO2)c1C(F)(F)F` (stereo not drawn) [IB-96, ethyl 3-(2-chloro-6-fluorophenyl)-5-(1-((tetrahydrofuran-2-yl)methyl)-5-(trifluoromethyl)-1H-pyrazol-4-yl)isoxazole-4-carboxylate], the pIC50 (in the test on IL-17FF (setting [2]); in test [1] (setting [3]); in the test with IFN-γ (setting [4])) was 7.00 to 8.00 in each case.
For `Fc1cccc(-n2ncc(-c3onc(-c4c(F)cccc4Cl)c3-c3ccccc3)c2C(F)(F)F)c1` [Example 14, 3-(2-chloro-6-fluorophenyl)-5-(1-(3-fluorophenyl)-5-(trifluoromethyl)-1H-pyrazol-4-yl)-4-phenylisoxazole], the pIC50 is 6.00 to 7.00 with IL-17FF (setting [5]), 6.00 to 7.00 in test [1] (setting [6]) and 7.00 to 8.00 in the test with IFN-γ (setting [7]).
Take `COC(=O)c1c(-c2c(F)cccc2Cl)noc1-c1cnn(-c2ccc(C(C)(C)C)cc2)c1C(F)(F)F` [Example I-81, methyl 5-(1-(4-tert-butylphenyl)-5-(trifluoromethyl)-1H-pyrazol-4-yl)-3-(2-chloro-6-fluorophenyl)isoxazole-4-carboxylate]: the pIC50 in the test with IL-17FF (setting [2]) was 5.00 to 6.00; in test [1] (setting [3]) it was 5.00 to 6.00; with IFN-γ (setting [4]), 6.00 to 7.00.
On to `CCOC(=O)c1c(-c2ccncc2F)noc1-c1cnn(-c2cccc(F)c2)c1C(F)(F)F` [IB-14, ethyl 5-(1-(3-fluorophenyl)-5-(trifluoromethyl)-1H-pyrazol-4-yl)-3-(3-fluoropyridin-4-yl)isoxazole-4-carboxylate], for which the pIC50 was 6.00 to 7.00 in the test on IL-17FF (setting [2]), 5.00 to 6.00 in test [1] (setting [3]) and 5.00 to 6.00 in the test on IFN-γ (setting [4]).
On to `CCOC(=O)c1c(-c2ccncc2F)noc1-c1cnn(-c2ccccc2F)c1C(F)(F)F` [IB-15, ethyl 5-(1-(2-fluorophenyl)-5-(trifluoromethyl)-1H-pyrazol-4-yl)-3-(3-fluoropyridin-4-yl)isoxazole-4-carboxylate], for which the pIC50 was 5.00 to 6.00 in the test with IL-17FF (setting [2]), 6.00 to 7.00 in test [1] (setting [3]) and 6.00 to 7.00 with IFN-γ (setting [4]).
For the compound `Fc1cccc(Cl)c1-c1noc(-c2cnn(-c3ccccn3)c2C(F)(F)F)c1-c1nnco1` [Example B-25, 2-(3-(2-chloro-6-fluorophenyl)-5-(1-(pyridin-2-yl)-5-(trifluoromethyl)-1H-pyrazol-4-yl)isoxazol-4-yl)-1,3,4-oxadiazole], the pIC50 with IL-17FF (setting [5]) is 6.00 to 7.00; in test [1] (setting [6]), 7.00 to 8.00; with IFN-γ (setting [7]), 7.00 to 8.00.
